Experiment in all cases: cells
Common to all, as to assay type: cell-based

For test [1], the system named is influenza A virus minigenome (PB2, PB1, PA, NP) RNP_CAL in 293T cells. To be noted: HEK-293T, 48 h, read-out: RNP_CAL_EC50.
Test [2] deals with influenza virus minigenome (PB2, PB1, PA, NP) RNP_Hubei in 293T cells. To be noted: unidentified influenza virus, HEK-293T, 48 h, read-out: RNP_Hubei EC50.
Test [3] relates to influenza A virus minigenome (PB2, PB1, PA, NP) RNP_Alaska in 293T cells. To be noted: HEK-293T, 48 h, read-out: RNP_Alaska EC50.

The structures appear in SMILES notation.

As to `N#Cc1ccccc1[C@H](c1ccc(F)cc1)[C@H]1Cn2ccnc2-c2c(O)c(=O)cnn21` [Example 44, 2-((S)-(4-fluorophenyl)((S)-11-hydroxy-10-oxo-5,6-dihydro-10H-imidazo[2′,1′:3,4]pyrazino[1,2-b]pyridazin-6-yl)methyl)benzonitrile], the EC50 came out at 0.3 µM in test [1], 0.31 µM in test [2] and 0.55 µM in test [3].

For `Cc1nc2n(c1C)C[C@H](C(c1ccccc1)c1ccccc1)n1ccc(=O)c(O)c1-2` [Example 14, (S)-6-benzhydryl-11-hydroxy-2,3-dimethyl-5H-imidazo[1,2-a]pyrido[2,1-c]pyrazin-10(6H)-one], the values for the EC50 in test [1], in test [2] and in test [3] were 4.2 µM, 5.5 µM and 6.7 µM, respectively.

Regarding `N#Cc1cccc([C@H](c2cccc(F)c2)[C@H]2Cn3ccnc3-c3c(O)c(=O)cnn32)c1` [Example 46, 3-((R)-(3-fluorophenyl)((S)-11-hydroxy-10-oxo-5,6-dihydro-10H-imidazo[2′,1′:3,4]pyrazino[1,2-b]pyridazin-6-yl)methyl)benzonitrile], the EC50 is 0.064 µM in test [1], 0.19 µM in test [2] and 0.15 µM in test [3].

For `O=c1cnn2c(c1O)-c1nccn1C[C@@H]2[C@@H](c1ccc(F)cc1)c1cc(F)cc(F)c1` [Example 34, (S)-6-((S)-(3,5-difluorophenyl)(4-fluorophenyl)methyl)-11-hydroxy-5H-imidazo[2′,1′:3,4]pyrazino[1,2-b]pyridazin-10(6H)-one], the EC50 was found to be 0.025 µM in test [1], 0.034 µM in test [2] and 0.033 µM in test [3].

Turning to `O=c1ccn2c(c1O)-c1ncc(-c3cn[nH]c3)n1C[C@@H]2C(c1ccccc1)c1ccccc1` [Example 52, (S)-6-benzhydryl-11-hydroxy-3-(1H-pyrazol-4-yl)-5,6-dihydro-10H-imidazo[1,2-a]pyrido[2,1-c]pyrazin-10-one], the EC50 was determined as 8.3 µM in test [1], 0.97 µM in test [2] and 5.1 µM in test [3].

`O=c1ccn2c(c1O)-c1ncc(Br)n1C[C@@H]2C(c1ccccc1)c1ccccc1` [Example 7, (S)-6-benzhydryl-3-bromo-11-hydroxy-5H-imidazo[1,2-a]pyrido[2,1-c]pyrazin-10(6H)-one]: the EC50 in test [1] came to 0.17 µM; in test [2], 0.16 µM; in test [3] it was 0.14 µM.

With `CCC1N(C(c2ccccc2)c2ccccc2)n2ccc(=O)c(O)c2-c2nccn21` (stereo not drawn) [Example 78, 6-benzhydryl-5-ethyl-11-hydroxy-5,6-dihydro-10H-imidazo[1,2-d]pyrido[2,1-f][1,2,4]triazin-10-one], the EC50 was 0.18 µM in test [1], 0.34 µM in test [2] and 0.25 µM in test [3].

On to `O=c1cnn2c(c1O)-c1nccn1C[C@@H]2[C@H](c1cccc(F)c1)c1ccc(F)cc1Br` [Example 36, (S)-6-((R)-(2-bromo-4-fluorophenyl)(3-fluorophenyl)methyl)-11-hydroxy-5,6-dihydro-10H-imidazo[2′,1′:3,4]pyrazino[1,2-b]pyridazin-10-one], for which the EC50 in test [1] stood at 0.027 µM; in test [2], 0.063 µM; in test [3], 0.021 µM.

Take `O=c1cnn2c(c1O)-c1ncc(CO)n1C[C@@H]2C(c1ccc(F)cc1)c1ccc(F)cc1` [Example 50, (S)-6-(bis(4-fluorophenyl)methyl)-11-hydroxy-3-(hydroxymethyl)-5,6-dihydro-10H-imidazo[2′,1:3,4]pyrazino[1,2-b]pyridazin-10-one]: the figures for the EC50 in test [1], in test [2] and in test [3] were 0.1 µM, 0.7 µM and 0.43 µM, respectively.

`O=c1cnn2c(c1O)-c1nccn1C[C@@H]2[C@H](c1ccc(F)cc1)c1ccc(F)cc1Br` [Example 39, (S)-6-((R)-(2-bromo-4-fluorophenyl)(4-fluorophenyl)methyl)-11-hydroxy-5,6-dihydro-10H-imidazo[2′,1′:3,4]pyrazino[1,2-b]pyridazin-10-one]: the EC50 in test [1] was found to be 0.033 µM; in test [2] it was 0.053 µM; in test [3] it was 0.025 µM.

`O=c1cnn2c(c1O)-c1nccn1C[C@H]2C(c1cccc(Cl)c1)c1cccc(Cl)c1` [Example 16, (R)-6-(bis(3-chlorophenyl)methyl)-11-hydroxy-5H-imidazo[2′,1′:3,4] pyrazino [1,2-b]pyridazin-10(6H)-one]: the EC50 in test [1] worked out at 0.82 µM; in test [2], 0.95 µM; in test [3], 0.96 µM.

Turning to `CC1(C)N(C(c2ccccc2)c2ccccc2)n2ccc(=O)c(O)c2-c2nccn21` [Example 75, 6-benzhydryl-11-hydroxy-5,5-dimethyl-5,6-dihydro-10H-imidazo[1,2-d]pyrido[2,1-f][1,2,4]triazin-10-one], the EC50 came to 0.3 µM in test [1], 0.4 µM in test [2] and 0.48 µM in test [3].

Consider `O=c1cnn2c(c1O)-c1nccn1C[C@@H]2[C@H](c1ccc(F)cc1)c1ccc(C(F)(F)F)nc1` [Example 20, (S)-6-((R)-(4-fluorophenyl)(6-(trifluoromethyl)pyridin-3-yl)methyl)-11-hydroxy-5,6-dihydro-10H-imidazo[2′,1′:3,4]pyrazino[1,2-b]pyridazin-10-one], for which the EC50 in test [1] turned out to be 0.72 µM; in test [2], 0.74 µM; in test [3], 0.69 µM.

On to `CC(C)CC(=O)Oc1c2n(ncc1=O)[C@@H](C(c1ccc(F)cc1)c1ccc(F)cc1)Cn1ccnc1-2` [Example 87, (S)-6-(bis(4-fluorophenyl)methyl)-10-oxo-5,6-dihydro-10H-imidazo[2′,1′:3,4]pyrazino[1,2-b]pyridazin-11-yl 3-methylbutanoate], for which the EC50 in test [1] turned out to be 0.021 µM; in test [2], 0.043 µM; in test [3], 0.027 µM.

With `N#Cc1cnc2n1C[C@H](C(c1ccc(F)cc1)c1ccc(F)cc1)n1ncc(=O)c(O)c1-2` [Example 49, (S)-6-(bis(4-fluorophenyl)methyl)-11-hydroxy-10-oxo-5,6-dihydro-10H-imidazo[2′,1′:3,4]pyrazino[1,2-b]pyridazine-3-carbonitrile], the EC50 in test [1] came to 0.82 µM; in test [2] it was 0.56 µM; in test [3], 0.87 µM.

Consider `O=c1ccn2c(c1O)-c1nccn1C[C@@H]2C(c1ccccc1)c1ccccc1` [Example 4, (S)-6-Benzhydryl-11-hydroxy-5H-imidazo[1,2-a]pyrido[2,1-c]pyrazin-10(6H)-one], for which the values for the EC50 in test [1], in test [2] and in test [3] were 0.16 µM, 0.09 µM and 0.18 µM, respectively.

Regarding `CC(C)C(=O)Oc1c2n(ncc1=O)[C@@H](C(c1ccc(F)cc1)c1ccc(F)cc1)Cn1ccnc1-2` [Example 86, (S)-6-(bis(4-fluorophenyl)methyl)-10-oxo-5,6-dihydro-10H-imidazo[2′,1′:3,4]pyrazino[1,2-b]pyridazin-11-yl Isobutyrate], the EC50 in test [1] came out at 0.021 µM; in test [2] it was 0.047 µM; in test [3], 0.03 µM.

With `Cc1cnc2n1C[C@H](C(c1ccccc1)c1ccccc1)n1ccc(=O)c(O)c1-2` [Example 13, (S)-6-benzhydryl-11-hydroxy-3-methyl-5H-imidazo[1,2-a]pyrido[2,1-c]pyrazin-10(6H)-one], the results for the EC50 in test [1], in test [2] and in test [3] were 0.31 µM, 0.3 µM and 0.57 µM, respectively.

On to `CCc1cnc2n1C[C@H](C(c1ccccc1)c1ccccc1)n1ccc(=O)c(O)c1-2` [Example 9, (S)-6-benzhydryl-3-ethyl-11-hydroxy-5H-imidazo[1,2-a]pyrido[2,1-c]pyrazin-10(6H)-one], for which the EC50 in test [1] came to 0.58 µM; in test [2] it was 0.59 µM; in test [3] it was 0.85 µM.

Take `O=c1cnn2c(c1O)-c1nccn1CC2C(c1cccc(F)c1)c1cccc(F)c1` (stereo not drawn) [Example 2, 6-(bis(3-fluorophenyl)methyl)-11-hydroxy-5,6-dihydro-10H-imidazo[2′,1′:3,4]pyrazino[1,2-b]pyridazin-10-one]: the EC50 in test [1] stood at 0.11 µM; in test [2], 0.09 µM; in test [3] it was 0.11 µM.

Consider `Cc1cc(F)ccc1[C@H](c1ccc(F)cc1)[C@H]1Cn2ccnc2-c2c(O)c(=O)cnn21` [Example 27, (S)-6-((S)-(4-fluoro-2-methylphenyl)(4-fluorophenyl)methyl)-11-hydroxy-5,6-dihydro-10H-imidazo[2′,1′:3,4]pyrazino[1,2-b]pyridazin-10-one], for which the EC50 amounted to 0.05 µM in test [1], 0.027 µM in test [2] and 0.05 µM in test [3].

With `O=c1ccn2c(c1O)-c1ocnc1CN2C(c1ccccc1)c1ccccc1` [Example 84, 5-benzhydryl-10-hydroxy-4,5-dihydro-9H-oxazolo[5,4-d]pyrido[1,2-b]pyridazin-9-one], the EC50 worked out at 11 µM in test [1], 16 µM in test [2] and 14 µM in test [3].

Consider `O=c1cnn2c(c1O)-c1nccn1C[C@@H]2[C@H](c1ccc(F)cc1)c1cccc(F)c1` [Example 26, (S)-6-((R)-(3-fluorophenyl)(4-fluorophenyl)methyl)-11-hydroxy-5,6-dihydro-10H-imidazo[2′,1′:3,4]pyrazino[1,2-b]pyridazin-10-one], for which the EC50 stood at 0.038 µM in test [1], 0.051 µM in test [2] and 0.027 µM in test [3].

Take `C[C@@H](NCc1cnc2n1C[C@H](C(c1ccccc1)c1ccccc1)n1ccc(=O)c(O)c1-2)C(F)(F)F` [Example 66, (S)-6-benzhydryl-11-hydroxy-3-((((R)-1,1,1-trifluoropropan-2-yl)amino)methyl)-5,6-dihydro-10H-imidazo[1,2-a]pyrido[2,1-c]pyrazin-10-one]: the EC50 in test [1] turned out to be 0.31 µM; in test [2], 0.63 µM; in test [3], 0.72 µM.

On to `O=c1ccn2c(c1O)-c1ncc(CNC3CCOCC3)n1C[C@@H]2C(c1ccccc1)c1ccccc1` [Example 65, (S)-6-benzhydryl-11-hydroxy-3-(((tetrahydro-2H-pyran-4-yl)amino)methyl)-5,6-dihydro-10H-imidazo[1,2-a]pyrido[2,1-c]pyrazin-10-one], for which the figures for the EC50 in test [1], in test [2] and in test [3] were 3.5 µM, 4.9 µM and 4.8 µM, respectively.

For the origin of these results see patent publication US11453677B2 (priority 2016, dated 2022).
